Key:
Type in all cases: in vivo
Galinsoga = test: Post-emergence test, Galinsoga; details: three weeks
Protocol: (§1) Solvent: 5 parts by weight acetone
(§2) 1 part by weight benzyloxypolyglycol ether
(§3) To produce a suitable preparation of the particular active compound, 1 part by weight of such active compound is mixed with the stated amount of solvent, the stated amount of emulsifier is then added and the resulting concentrate is thereafter diluted with water to the desired final concentration.
(§4) Test plants which have a height of about 5--15 cm. are sprayed with the preparation of the given active compound until just dew moist. After three weeks, the degree of damage to the plants is determined and characterized by the values 0-5, which have the following meaning:
(§5) The procedure of Example 2 is repeated, and the particular active compounds tested, and amounts applied, and the results obtained can be seen from the following Table 2E: […]

Echinochloa [1] = test: Pre-emergence test, Echinochloa; details: three weeks
Protocol: as §1, §2, §3
(§6) Seeds of the test plants are sown in normal soil and, after 24 hours, watered with the preparation of the given active compound. It is expedient to keep constant the amount of water per unit area. The concentration of the particular active compound in the preparation is of no importance, only the amount of active compound applied per unit area being decisive. After three weeks, the degree of damage to the test plants is determined and characterized by the values 0-5, which have the following meaning:
(§7) The procedure of Example 1 is repeated, and the particular active compounds tested, the amounts applied, and the results obtained can be seen from the following Table 1D: […]

test plants [2] = test: Pre-emergence test, overall; details: Example 1
Protocol: as §1, §2, §3, §6, §7

Oats [3] = test: Pre-emergence test, oats; details: three weeks
Protocol: as §1, §2, §3, §6, §7

Wheat [4] = test: Pre-emergence test, wheat; details: three weeks
Protocol: as §1, §2, §3, §6, §7

test plants [5] = test: Post-emergence test, overall; details: Example 2
Protocol: as §1, §2, §3, §4, §5

Wheat [6] = test: Post-emergence test, wheat; details: three weeks
Protocol: as §1, §2, §3, §4, §5

Sinapis [7] = test: Post-emergence test, Sinapis; details: three weeks
Protocol: as §1, §2, §3, §4, §5

Chenopodium [8] = test: Post-emergence test, Chenopodium; details: three weeks
Protocol: as §1, §2, §3, §4, §5

Cotton [9] = test: Post-emergence test, cotton; details: three weeks
Protocol: as §1, §2, §3, §4, §5

Echinochloa [10] = test: Post-emergence test, Echinochloa; details: three weeks
Protocol: as §1, §2, §3, §4, §5

Oats [11] = test: Post-emergence test, oats; details: three weeks
Protocol: as §1, §2, §3, §4, §5

Sinapis [12] = test: Pre-emergence test, Sinapis; details: three weeks
Protocol: as §1, §2, §3, §6, §7

Stellaria = test: Post-emergence test, Stellaria; details: three weeks
Protocol: as §1, §2, §3, §4, §5

Chenopodium [13] = test: Pre-emergence test, Chenopodium; details: three weeks
Protocol: as §1, §2, §3, §6, §7

Cotton [14] = test: Pre-emergence test, cotton; details: three weeks
Protocol: as §1, §2, §3, §6, §7

plants and weeds = test: General herbicidal activity; details: compared with compound 221

CCNc1nc(Cl)nc(NCC)n1 [A, 2,6-di-(ethylamino)-4-chloro-1,3,5-triazine, reference compound]
degree of damage, Galinsoga (Galinsoga; 0.1 % active compound): 4-5
degree of damage, Echinochloa (Echinochloa [1]; 5 kg/hectare): 3-4

CSc1nnc(C2CCCCC2)c(=O)n1N [Compound 2, 3-methylthio-4-amino-6-cyclohexyl-1,2,4-triazine-5-one]
kind of herbicidal action (test plants [2]): pronouncedly total-herbicidal action
degree of damage, Oats (Oats [3]; 1.25 kg/hectare): 4-5
degree of damage, Wheat (Wheat [4]; 1.25 kg/hectare): 4-5

CCSc1nnc(-c2ccccc2)c(=O)n1N [Compound 3, 3-ethylthio-4-amino-6-phenyl-1,2,4-triazine-5-one]
kind of herbicidal action (test plants [2]): selectively herbicidal action in wheat and cotton

CSc1nnc(C(C)C)c(=O)n1N [Compound 21, 3-methylthio-4-amino-6-isopropyl-1,2,4-triazine-5-one]
kind of herbicidal action (test plants [5]): pronouncedly total-herbicidal action
degree of damage, Wheat (Wheat [6]; 0.01 % active compound): 4-5

Nn1c(N2CCCCC2)nnc(-c2ccccc2)c1=O [Compound 25, 3-piperidino-4-amino-6-phenyl-1,2,4-triazine-5-one]
degree of damage, Sinapis (Sinapis [7]; 10 Kg/hectare): 4-5
degree of damage, Chenopodium (Chenopodium [8]; 10 Kg/hectare): 3-4

C=CCNc1nnc(-c2ccccc2)c(=O)n1N [Compound 26, 3-allylamino-4-amino-6-phenyl-1,2,4-triazine-5-one]
kind of herbicidal action (test plants [5]): pronouncedly selective-herbicidal action in wheat and carrots
degree of damage, Chenopodium (Chenopodium [8]; 0.6 Kg/hectare): 4-5
degree of damage, Echinochloa (Echinochloa [1]; 5 kg/hectare): 4-5

CSc1nnc(-c2ccccc2)c(=O)n1N=Cc1ccccn1 [Compound 28, 3-methylthio-4-(pyrid-2'-yl-methylidene-amino)-6-phenyl-1,2,4-triazine-5-one]
kind of herbicidal action (test plants [5]): pronouncedly selective-herbicidal action in snap beans and wheat

CCCCNc1nnc(-c2ccccc2)c(=O)n1N [Compound 100a, 3-n-butylamino-4-amino-6-phenyl-1,2,4-triazine-5-one]
degree of damage, Cotton (Cotton [9]; 10 Kg/hectare): 2-3
degree of damage, Echinochloa (Echinochloa [10]; 10 Kg/hectare): 2-3
degree of damage, Wheat (Wheat [6]; 10 Kg/hectare): 2-3

Nn1c(NCc2ccccc2)nnc(-c2ccccc2)c1=O [Compound 102a, 3-benzylamino-4-amino-6-phenyl-1,2,4-triazine-5-one]
degree of damage, Cotton (Cotton [9]; 10 Kg/hectare): 2-3

CSc1nnc(C2CCCCO2)c(=O)n1N (stereo not drawn) [Compound 163, 3-methylthio-4-amino-6-(tetrahydropyran-2'-yl)-1,2,4-triazine-5-one]
degree of damage, Chenopodium (Chenopodium [8]; 0.6 Kg/hectare): 4-5
degree of damage, Echinochloa (Echinochloa [10]; 2.4 Kg/hectare): 4-5
degree of damage, Wheat (Wheat [6]; 0.6 Kg/hectare): 3-4
degree of damage, Wheat (Wheat [6]; 1.2 Kg/hectare): 4-5

CCNc1nnc(C(C)C)c(=O)n1N [Compound 177, 3-ethylamino-4-amino-6-isopropyl-1,2,4-triazine-5-one]
degree of damage, Galinsoga (Galinsoga; 2.4 Kg/hectare): 4-5
degree of damage, Oats (Oats [11]; 2.4 Kg/hectare): 4-5
degree of damage, Oats (Oats [3]; 2.5 kg/hectare): 4-5
degree of damage, Wheat (Wheat [6]; 2.4 Kg/hectare): 4-5
degree of damage, Sinapis (Sinapis [12]; 5 kg/hectare): 4-5

C=CCNc1nnc(C(C)C)c(=O)n1N [Compound 179, 3-(α-allylamino)-4-amino-6-isopropyl-1,2,4-triazine-5-one]
degree of damage, Stellaria (Stellaria; 1.2 Kg/hectare): 4-5
degree of damage, Chenopodium (Chenopodium [8]; 0.6 Kg/hectare): 4-5

CSc1nnc(C(C)C)c(=O)n1NC(O)C(Cl)(Cl)Cl (stereo not drawn) [Compound 191, 3-methylthio-4-(β-trichloro-α-hydroxy-ethyl)-amino-6-isopropyl-1,2,4-triazine-5-one]
degree of damage, Sinapis (Sinapis [7]; 1.2 Kg/hectare): 4-5

CSc1nnc(C2CCCCC2)c(=O)n1NC(O)C(Cl)(Cl)Cl (stereo not drawn) [Compound 193, 3-methylthio-4-(β-trichloro-α-hydroxy-ethyl)-amino-6-cyclohexyl-1,2,4-triazine-5-one]
degree of damage, Chenopodium (Chenopodium [13]; 2.5 kg/hectare): 4-5
degree of damage, Oats (Oats [11]; 1.2 Kg/hectare): 4-5
degree of damage, Oats (Oats [3]; 2.5 kg/hectare): 4-5
degree of damage, Wheat (Wheat [4]; 5 kg/hectare): 4-5
degree of damage, Wheat (Wheat [6]; 2.4 Kg/hectare): 4-5

CSc1nnc(C(C)C)c(=O)n1N=C(C)C [Compound 194, 3-methylthio-4-(prop-2'-ylidene-amino)-6-isopropyl-1,2,4-triazine-5-one]
degree of damage, Cotton (Cotton [14]; 1.25 kg/hectare): 4-5
degree of damage, Cotton (Cotton [9]; 0.6 Kg/hectare): 4-5
degree of damage, Wheat (Wheat [4]; 1.25 kg/hectare): 4-5
degree of damage, Wheat (Wheat [6]; 1.2 Kg/hectare): 4-5
degree of damage, Wheat (Wheat [6]; 2.4 Kg/hectare): 4-5

COc1ccc(C=Nn2c(SC)nnc(C(C)C)c2=O)cc1 [Compound 207, 3-methylthio-4-(4'-methoxy-benzylidene-amino)-6-isopropyl-1,2,4-triazine-5-one]
degree of damage, Cotton (Cotton [14]; 5 kg/hectare): 4-5
degree of damage, Cotton (Cotton [9]; 0.6 Kg/hectare): 4-5
degree of damage, Oats (Oats [11]; 2.4 Kg/hectare): 4-5
degree of damage, Oats (Oats [3]; 5 kg/hectare): 4-5
degree of damage, Wheat (Wheat [4]; 5 kg/hectare): 4-5
degree of damage, Wheat (Wheat [6]; 1.2 Kg/hectare): 3-4
degree of damage, Wheat (Wheat [6]; 2.4 Kg/hectare): 3-4

CSc1nnc(C(C)C)c(=O)n1N=Cc1cccc([N+](=O)[O-])c1 [Compound 209, 3-methylthio-4-(3'-nitro-benzylidene-amino)-6-isopropyl-1,2,4-triazine-5-one]
degree of damage, Chenopodium (Chenopodium [13]; 1.25 kg/hectare): 4-5
degree of damage, Chenopodium (Chenopodium [13]; 2.5 kg/hectare): 4-5
degree of damage, Cotton (Cotton [14]; 1.25 kg/hectare): 4-5
degree of damage, Cotton (Cotton [14]; 2.5 kg/hectare): 4-5
degree of damage, Cotton (Cotton [14]; 5 kg/hectare): 4-5
degree of damage, Oats (Oats [11]; 2.4 Kg/hectare): 4-5
degree of damage, Oats (Oats [3]; 2.5 kg/hectare): 4-5
degree of damage, Oats (Oats [3]; 5 kg/hectare): 4-5

CSc1nnc(C(C)C)c(=O)n1N=CC(C)C [Compound 214, 3-methylthio-4-(isobutylidene-amino)-6-isopropyl-1,2,4-triazine-5-one]
degree of damage, Cotton (Cotton [9]; 0.6 Kg/hectare): 4-5
degree of damage, Cotton (Cotton [9]; 1.2 Kg/hectare): 4-5
degree of damage, Oats (Oats [11]; 0.6 Kg/hectare): 4-5
degree of damage, Wheat (Wheat [4]; 2.5 kg/hectare): 4-5

CSc1nnc(C(C)(C)C)c(=O)n1N=Cc1ccco1 [Compound 222, 3-methylthio-4-(furfur-2'-ylidene-amino)-6-tert.-butyl-1,2,4-triazine-5-one]
degree of damage, Stellaria (Stellaria; 0.6 Kg/hectare): 4-5
degree of damage, Cotton (Cotton [14]; 1.25 kg/hectare): 4-5
degree of damage, Oats (Oats [3]; 1.25 kg/hectare): 4-5
degree of damage, Wheat (Wheat [4]; 5 kg/hectare): 4-5
degree of damage, Wheat (Wheat [6]; 2.4 Kg/hectare): 4-5
usefulness as herbicide (plants and weeds): similarly useful
degree of damage, Sinapis (Sinapis [12]; 1.25 kg/hectare): 4-5

CSc1nnc(C(C)C)c(=O)n1N=C1CCCC1 [Compound 223, 3-methylthio-4-(cyclopentylidene-amino)-6-isopropyl-1,2,4-triazine-5-one]
degree of damage, Cotton (Cotton [14]; 2.5 kg/hectare): 4-5
degree of damage, Cotton (Cotton [14]; 5 kg/hectare): 4-5
degree of damage, Cotton (Cotton [9]; 1.2 Kg/hectare): 4-5
degree of damage, Chenopodium (Chenopodium [8]; 1.2 Kg/hectare): 4-5
degree of damage, Echinochloa (Echinochloa [10]; 1.2 Kg/hectare): 4-5
degree of damage, Oats (Oats [3]; 1.25 kg/hectare): 4-5
degree of damage, Wheat (Wheat [4]; 2.5 kg/hectare): 4-5
degree of damage, Wheat (Wheat [4]; 5 kg/hectare): 4-5
usefulness as herbicide (plants and weeds): similarly useful
degree of damage, Sinapis (Sinapis [12]; 1.25 kg/hectare): 4-5

CSc1nnc(C2CCCCC2)c(=O)n1N=Cc1ccco1 [Compound 226, 3-methylthio-4-(furfur-2'-ylidene-amino)-6-cyclohexyl-1,2,4-triazine-5-one]
degree of damage, Cotton (Cotton [14]; 5 kg/hectare): 3-4
degree of damage, Cotton (Cotton [9]; 2.4 Kg/hectare): 4-5
degree of damage, Oats (Oats [11]; 2.4 Kg/hectare): 4-5
degree of damage, Oats (Oats [3]; 5 kg/hectare): 4-5
degree of damage, Echinochloa (Echinochloa [1]; 2.5 kg/hectare): 4-5

CSc1nnc(C2CCCCC2)c(=O)n1N=C1CCCCC1 [Compound 227, 3-methylthio-4-(cyclohexylidene-amino)-6-cyclohexyl-1,2,4-triazine-5-one]
degree of damage, Stellaria (Stellaria; 2.4 Kg/hectare): 4-5
degree of damage, Chenopodium (Chenopodium [8]; 2.4 Kg/hectare): 4-5
degree of damage, Wheat (Wheat [4]; 2.5 kg/hectare): 4-5
degree of damage, Wheat (Wheat [4]; 5 kg/hectare): 4-5
degree of damage, Wheat (Wheat [6]; 2.4 Kg/hectare): 4-5
degree of damage, Echinochloa (Echinochloa [1]; 1.25 kg/hectare): 4-5
degree of damage, Sinapis (Sinapis [12]; 1.25 kg/hectare): 4-5

CNc1nnc(C(C)(C)C)c(=O)n1N=Cc1ccccc1 [Compound 230, 3-methylamino-4-(benzylidene-amino)-6-tert.-butyl-1,2,4-triazine-5-one]
degree of damage, Stellaria (Stellaria; 0.6 Kg/hectare): 4-5
degree of damage, Chenopodium (Chenopodium [13]; 2.5 kg/hectare): 4-5
degree of damage, Cotton (Cotton [14]; 5 kg/hectare): 4-5
degree of damage, Oats (Oats [11]; 2.4 Kg/hectare): 4-5
degree of damage, Echinochloa (Echinochloa [10]; 1.2 Kg/hectare): 4-5
degree of damage, Echinochloa (Echinochloa [10]; 2.4 Kg/hectare): 4-5
degree of damage, Oats (Oats [3]; 5 kg/hectare): 4-5
degree of damage, Wheat (Wheat [4]; 5 kg/hectare): 4-5
degree of damage, Echinochloa (Echinochloa [1]; 2.5 kg/hectare): 4-5
degree of damage, Echinochloa (Echinochloa [1]; 5 kg/hectare): 4-5
degree of damage, Sinapis (Sinapis [12]; 2.5 kg/hectare): 4-5

CNc1nnc(C(C)(C)C)c(=O)n1N=Cc1ccc(Cl)cc1 [Compound 233, 3-methylamino-4-(4'-chloro-benzylidene-amino)-6-tert.-butyl-1,2,4-triazine-5-one]
degree of damage, Cotton (Cotton [9]; 2.4 Kg/hectare): 4-5
degree of damage, Oats (Oats [11]; 1.2 Kg/hectare): 4-5
degree of damage, Oats (Oats [11]; 2.4 Kg/hectare): 4-5
degree of damage, Wheat (Wheat [6]; 0.6 Kg/hectare): 4-5
degree of damage, Wheat (Wheat [6]; 1.2 Kg/hectare): 4-5
degree of damage, Echinochloa (Echinochloa [1]; 5 kg/hectare): 4-5

Reference: patent publication US3966715A, “Herbicidal agents” (Bayer Aktiengesellschaft, priority 1966, dated 1976)
